Like-named read-outs stand apart in the source and are kept apart here.
Assays:
MIA PaCa-2 cells = assay: MTT proliferation assay in MIA PaCa-2 cells; type: cell-based, human; conditions: 72 h drug exposure
Experimental: (§1) The human pancreatic carcinoma MIA PaCa-2 was purchased from China Centre for Type Culture Collection, AsPC-1 and BxPC-3 cell Lines were purchased from Cell Centre of the Institute of Basic Medical Sciences, Chinese Academy of Medical Sciences and Peking Union Medical College. PANC-1 was kindly provided by Nankai Hospital (Tianjin, China). These cancer cell lines were cultured according to the manufacturer’s instruction.
(§2) Then 3-fold diluted concentrations of tested compound were added respectively which was dissolved by DMSO in the ratio of 1:1000. After indicated incubation period, MTT was added to each well and incubated for 4 h at 37 °C. Then, the supernatant was discarded gently, and the precipitate was dissolved in 100 µL of DMSO in each well. The absorbance (A) at 570 nm was detected with a microplate reader (Multiskan MK3; Thermo Fisher Scientific, MA, USA). Vehicle-treated cells were served as the control for the calculation of relative cell viability (%) of treated group at single concentration. IC50 value was calculated directly from the inhibition curve of serial dilution of test compound and was expressed as mean ± SD using the SPSS statistical software (SPSS17.0 Inc., Chicago, IL, USA).

CDK9/cyclinT1 = CDK9/cyclinT1 (Homo sapiens, UniProt P50750); assay: CDK9/cyclinT1 Lance Ultra Assay, single concentration screen; type: biochemical; conditions: ATP concentration at Km; for inhibition at 0.05 µM: 50 nM, read-out: CDK9 inhibitory rate (%) @ 50nM; for CDK9 inhibitory rate (%) @ 50nM: 0.05 µM
Sequence of CDK9/cyclinT1 (P50750 whole entry): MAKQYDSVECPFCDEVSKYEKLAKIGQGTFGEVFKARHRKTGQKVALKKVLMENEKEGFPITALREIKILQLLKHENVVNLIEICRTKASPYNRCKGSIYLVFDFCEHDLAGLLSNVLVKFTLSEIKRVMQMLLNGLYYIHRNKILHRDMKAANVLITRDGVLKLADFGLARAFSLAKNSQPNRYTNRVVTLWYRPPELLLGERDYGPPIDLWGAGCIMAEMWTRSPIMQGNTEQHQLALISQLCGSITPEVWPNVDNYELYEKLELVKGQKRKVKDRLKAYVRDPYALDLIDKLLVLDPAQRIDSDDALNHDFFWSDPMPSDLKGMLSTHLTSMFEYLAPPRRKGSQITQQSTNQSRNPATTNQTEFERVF
Sequence of CDK9/cyclinT1 (O60563 whole entry partner): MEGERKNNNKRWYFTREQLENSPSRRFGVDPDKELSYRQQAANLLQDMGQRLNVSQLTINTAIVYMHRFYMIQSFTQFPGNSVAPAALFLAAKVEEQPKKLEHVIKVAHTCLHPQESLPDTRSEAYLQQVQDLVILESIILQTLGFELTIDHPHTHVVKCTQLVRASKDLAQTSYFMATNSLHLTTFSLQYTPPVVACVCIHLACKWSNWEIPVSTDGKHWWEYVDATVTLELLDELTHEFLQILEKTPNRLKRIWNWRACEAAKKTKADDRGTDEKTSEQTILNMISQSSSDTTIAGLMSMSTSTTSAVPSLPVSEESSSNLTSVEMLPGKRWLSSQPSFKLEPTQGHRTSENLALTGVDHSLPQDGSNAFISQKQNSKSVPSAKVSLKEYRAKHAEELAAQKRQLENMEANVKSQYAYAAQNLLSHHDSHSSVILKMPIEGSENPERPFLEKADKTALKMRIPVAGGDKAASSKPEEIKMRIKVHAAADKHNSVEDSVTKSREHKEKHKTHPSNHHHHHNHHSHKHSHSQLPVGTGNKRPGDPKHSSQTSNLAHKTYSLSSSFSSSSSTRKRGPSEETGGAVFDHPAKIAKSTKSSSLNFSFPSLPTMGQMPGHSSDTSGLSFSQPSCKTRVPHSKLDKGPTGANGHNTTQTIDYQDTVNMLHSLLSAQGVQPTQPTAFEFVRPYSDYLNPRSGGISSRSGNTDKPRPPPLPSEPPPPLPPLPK
Experimental: (§3) CDK kinase activity (IC50 values and inhibitory rate at single concentration) was measured using the kinase profiling services (Shanghai ChemPartner Co., Ltd). Compounds were sent to ChemPartner as a solution in DMSO at concentration of 10 mM.

[1] = Solubility / precipitation observations; type: physicochemical
CDK4 = CDK4 (Homo sapiens, UniProt P11802); assay: CDK4 kinase IC50, Mobility shift assay; type: biochemical
Sequence of CDK4 (P11802 whole entry): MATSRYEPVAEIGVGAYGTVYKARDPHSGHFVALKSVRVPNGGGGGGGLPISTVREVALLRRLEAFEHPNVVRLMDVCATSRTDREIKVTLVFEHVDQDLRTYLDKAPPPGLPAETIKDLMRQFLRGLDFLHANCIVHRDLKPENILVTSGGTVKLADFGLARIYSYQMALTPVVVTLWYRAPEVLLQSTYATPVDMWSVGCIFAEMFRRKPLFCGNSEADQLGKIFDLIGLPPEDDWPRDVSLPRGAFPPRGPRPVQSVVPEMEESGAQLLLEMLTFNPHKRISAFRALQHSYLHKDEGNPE
Sequence of CDK4 (P30281 whole entry partner): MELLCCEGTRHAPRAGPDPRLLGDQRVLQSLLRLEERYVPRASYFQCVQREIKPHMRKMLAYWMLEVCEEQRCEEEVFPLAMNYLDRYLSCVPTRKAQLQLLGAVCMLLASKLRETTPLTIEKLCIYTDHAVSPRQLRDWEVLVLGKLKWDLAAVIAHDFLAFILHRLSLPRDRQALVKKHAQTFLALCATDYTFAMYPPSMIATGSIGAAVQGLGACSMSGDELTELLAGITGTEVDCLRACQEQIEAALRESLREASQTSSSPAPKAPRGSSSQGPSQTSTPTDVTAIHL
Experimental: as §3

CDK7 = CDK7 (Homo sapiens, UniProt P50613); assay: CDK7 kinase IC50, Mobility shift assay; type: biochemical
Sequence of CDK7 (P50613 whole entry): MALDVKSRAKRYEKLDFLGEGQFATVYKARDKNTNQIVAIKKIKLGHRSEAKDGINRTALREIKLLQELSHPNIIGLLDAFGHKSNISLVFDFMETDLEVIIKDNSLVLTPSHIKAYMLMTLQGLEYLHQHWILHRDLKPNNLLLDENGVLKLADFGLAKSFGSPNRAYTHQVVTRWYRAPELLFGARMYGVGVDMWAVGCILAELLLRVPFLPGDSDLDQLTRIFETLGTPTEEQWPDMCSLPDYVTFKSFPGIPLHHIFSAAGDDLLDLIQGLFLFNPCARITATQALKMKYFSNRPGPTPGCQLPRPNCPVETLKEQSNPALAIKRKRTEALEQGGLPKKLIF
Sequence of CDK7 (P51946 whole entry partner): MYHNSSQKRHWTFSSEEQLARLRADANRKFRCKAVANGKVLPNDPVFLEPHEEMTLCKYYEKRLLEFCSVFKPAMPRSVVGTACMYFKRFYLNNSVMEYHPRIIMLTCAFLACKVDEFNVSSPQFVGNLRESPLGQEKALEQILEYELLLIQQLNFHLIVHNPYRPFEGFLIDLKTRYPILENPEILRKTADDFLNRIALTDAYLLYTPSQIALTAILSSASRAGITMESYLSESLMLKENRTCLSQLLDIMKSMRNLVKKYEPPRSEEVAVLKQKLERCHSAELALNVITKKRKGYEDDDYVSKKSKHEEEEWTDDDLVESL
Sequence of CDK7 (P51948 whole entry partner): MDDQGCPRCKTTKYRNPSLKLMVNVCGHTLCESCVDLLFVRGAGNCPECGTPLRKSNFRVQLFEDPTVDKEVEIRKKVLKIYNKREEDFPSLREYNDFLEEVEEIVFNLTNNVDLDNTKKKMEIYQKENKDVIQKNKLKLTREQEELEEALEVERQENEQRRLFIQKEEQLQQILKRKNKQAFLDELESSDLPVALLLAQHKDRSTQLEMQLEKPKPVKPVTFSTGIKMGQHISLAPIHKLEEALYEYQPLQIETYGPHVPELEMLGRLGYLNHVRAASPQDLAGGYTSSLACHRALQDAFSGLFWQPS
Experimental: as §3

CDK9 = CDK9 (Homo sapiens, UniProt P50750); assay: CDK9 kinase IC50, Mobility shift assay; type: biochemical
Sequence of CDK9 (P50750 whole entry): as the sequence (P50750 whole entry) above
Sequence of CDK9 (O60563 whole entry partner): as the sequence (O60563 whole entry partner) above
Experimental: as §3

CDK2 = CDK2 (Homo sapiens, UniProt P24941); assay: CDK2 kinase IC50, Mobility shift assay; type: biochemical
Experimental: as §3

CDK1 = CDK1 (Homo sapiens, UniProt P06493); assay: CDK1 kinase IC50, Mobility shift assay; type: biochemical
Sequence of CDK1 (P06493 whole entry): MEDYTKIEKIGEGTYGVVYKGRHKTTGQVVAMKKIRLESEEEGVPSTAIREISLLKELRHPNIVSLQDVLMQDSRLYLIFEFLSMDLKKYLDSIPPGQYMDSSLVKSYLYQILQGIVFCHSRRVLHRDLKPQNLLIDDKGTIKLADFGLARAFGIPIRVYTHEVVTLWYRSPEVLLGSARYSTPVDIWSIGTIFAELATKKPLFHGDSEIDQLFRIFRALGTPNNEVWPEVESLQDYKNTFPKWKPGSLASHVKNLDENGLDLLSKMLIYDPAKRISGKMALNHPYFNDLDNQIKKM
Sequence of CDK1 (P14635 whole entry partner): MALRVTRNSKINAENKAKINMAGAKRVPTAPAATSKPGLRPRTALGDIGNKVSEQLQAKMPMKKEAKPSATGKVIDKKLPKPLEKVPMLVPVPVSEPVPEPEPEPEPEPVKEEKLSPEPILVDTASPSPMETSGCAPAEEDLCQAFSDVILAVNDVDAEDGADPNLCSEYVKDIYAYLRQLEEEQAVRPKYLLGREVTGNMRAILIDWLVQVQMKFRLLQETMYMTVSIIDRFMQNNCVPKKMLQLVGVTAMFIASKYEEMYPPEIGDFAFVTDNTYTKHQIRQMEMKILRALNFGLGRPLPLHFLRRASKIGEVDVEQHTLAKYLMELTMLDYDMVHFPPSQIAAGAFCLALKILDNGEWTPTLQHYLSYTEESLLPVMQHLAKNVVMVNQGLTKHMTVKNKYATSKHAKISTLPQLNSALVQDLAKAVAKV
Experimental: as §3

Oral PK study in rats = type: in vivo; conditions: male, SD, rat, plasma, 30 mg/kg
Experimental: Synthetic compound was administered as a suspension or solution in the saline with 5% DMSO and 5% Solutol. GCTB was dissolved in saline. All of the experiments were approved by the Institutional Animal Care and Use Committee of Institute of Medicinal Biotechnology. All experiments were carried out under ethics committee–approved protocols and in compliance with the guidelines for the care of laboratory animals of Institute of Medicinal Biotechnology, CAMS.
SD rats were purchased from Beijing Vital River Laboratory Animal Technology Co., Ltd and randomly divided into three groups (n = 3, male). The animals were housed under standard conditions and fastened for 12 h before the treatment. They had free access to water and consumed a standard laboratory diet from 4 h after administration. Blood was taken from the orbital venous plexus at 0, 0.083, 0.25, 0.5, 1, 2, 4, 6, 8, and 24 h after intragastric administration of the test compound (30 mg/kg). The blood samples were collected into heparin anticoagulated EP tubes and centrifuged at 8000 r/min for 5 min at 2−8 °C; the plasma was separated and stored at −70 °C for use. Plasma was centrifuged at 4000 rpm for 10 min at 2−8 °C and stored at −70 °C until analysis. Plasma samples were analysed by LC-MS/MS (AB Sciex API4000 QTRAP) equipped with an ESI ion resource and Analyst 1.5.1 software. The noncompartmental model analysis was used for calculating pharmacokinetic parameters with the WinNolin professional v6.3 program (Pharsight, USA).

PANC-1 = assay: MTT proliferation assay in PANC-1 cells; type: cell-based; conditions: Homo sapiens, 72 h drug exposure
Experimental: as §1
as §2, with “Cells were planted in 96-well plates at a density of 3000–4000 cells per well and incubated at 37 °C in a humidified CO2 incubator for 24 h. Then 3-fold” for “Then 3-fold”

AsPC-1 = assay: MTT proliferation assay in AsPC-1 cells; type: cell-based; conditions: Homo sapiens, ASPC1; 72 h drug exposure
Experimental: as §1
as §2, with “Cells were planted in 96-well plates at a density of 3000–4000 cells per well and incubated at 37 °C in a humidified CO2 incubator for 24 h. Then 3-fold” for “Then 3-fold”

BxPC-3 = assay: MTT proliferation assay in BxPC-3 cells; type: cell-based; conditions: Homo sapiens, 72 h drug exposure
Experimental: as §1
as §2, with “Cells were planted in 96-well plates at a density of 3000–4000 cells per well and incubated at 37 °C in a humidified CO2 incubator for 24 h. Then 3-fold” for “Then 3-fold”

Row | Compound | IC50 (MIA PaCa-2 cells; Homo sapiens, MIA PaCa-2, 72 h) [µM] | inhibition at 0.05 µM (CDK9/cyclinT1) [%] | IC50 (CDK4) [nM] | IC50 (CDK7) [nM] | IC50 (CDK9) [nM] | IC50 (CDK2) [nM] | other results
1 | CN(C)C(=O)c1cc2cnc(Nc3ccc(S(N)(=O)=O)cn3)nc2n1C1CCCC1 [compound 2i, 7-Cyclopentyl-N,N-dimethyl-2-((5-sulfamoylpyridin-2-yl)amino)-7H-pyrrolo[2,3-d]pyrimidine-6-carboxamide] | > 100 | 27 |  |  |  |  | CDK9 inhibitory rate (%) @ 50nM (CDK9/cyclinT1): 27.4%
2 | CN(C)C(=O)c1cc2cnc(Nc3ccc(S(=O)(=O)Nc4ncccn4)cc3)nc2n1C1CCCC1 [compound 2b, 7-Cyclopentyl-N,N-dimethyl-2-((4-(N-(pyrimidin-2-yl)sulfamoyl)phenyl)amino)-7H-pyrrolo[2,3-d]pyrimidine-6-carboxamide] | > 10 | 98.7 |  |  |  |  | IC50 (MIA PaCa-2 cells): 14.3 ± 0.21 µM; solubility (in words) [1]: poor solubility
3 | COc1ccccc1NC(=O)c1cc2cnc(Nc3ccc(S(=O)(=O)Nc4ncccn4)cc3)nc2n1C1CCCC1 [10b, 7-Cyclopentyl-N-(2-methoxyphenyl)-2-((4-(N-(pyrimidin-2-yl)sulfamoyl)phenyl)amino)-7H-pyrrolo[2,3-d]pyrimidine-6-carboxamide] | 80.8 ± 16 | 54 |  |  |  |  | CDK9 inhibitory rate (%) @ 50nM (CDK9/cyclinT1): 54.4%
4 | Cc1ccnc(NS(=O)(=O)c2ccc(Nc3ncc4cc(C(=O)N(C)C)n(C5CCCC5)c4n3)cc2)n1 [2a, 7-cyclopentyl-N,N-dimethyl-2-((4-(N-(4-methylpyrimidin-2-yl)sulfamoyl)phenyl)amino)-7H-pyrrolo[2,3-d]pyrimidine-6-carboxamide] | > 10 | 100 |  |  |  |  | IC50 (MIA PaCa-2 cells): 13 ± 0.37 µM
5 | CN(C)C(=O)c1cc2cnc(Nc3ccccc3)nc2n1C1CCCC1 [compound 2h] | 45.1 ± 16.6 | 93.2 |  |  |  |  | 
6 | CN(C)C(=O)c1cc2cnc(Nc3ccc(S(=O)(=O)Nc4ccc(Cl)cc4)cc3)nc2n1C1CCCC1 [2d, 2-((4-(N-(4-chlorophenyl)sulfamoyl)phenyl)amino)-7-cyclopentyl-N,N-dimethyl-7H-pyrrolo[2,3-d]pyrimidine-6-carboxamide] | 6.23 ± 1.25 | 91.8 | 148 | > 10000 | 7.7 | 7980 | 
7 | CN(C)C(=O)c1cc2cnc(Nc3ccc(S(C)(=O)=O)cc3)nc2n1C1CCCC1 [2f, 7-Cyclopentyl-N,N-dimethyl-2-((4-(methylsulfonyl)phenyl)amino)-7H-pyrrolo[2,3-d]pyrimidine-6-carboxamide] | 18.9 ± 2.12 | 96.5 |  |  |  |  | 
8 | CN(C)C(=O)c1cc2cnc(Nc3ccc(S(=O)(=O)N4CCOCC4)cc3)nc2n1C1CCCC1 [5e, 7-Cyclopentyl-N,N-dimethyl-2-((4-(morpholinosulfonyl)phenyl)amino)-7H-pyrrolo[2,3-d]pyrimidine-6-carboxamide] | 4.35 ± 1.61 | 81.8 | 52 | > 10000 | 13 | 236 | IC50 (CDK1): 439 nM
9 | CN(C)C(=O)c1cc2cnc(Nc3ccc(S(=O)(=O)N(C)C)cn3)nc2n1C1CCCC1 [2j] | 69.1 ± 15.5 | 25 |  |  |  |  | CDK9 inhibitory rate (%) @ 50nM (CDK9/cyclinT1): 25.8%
10 | CN(C)C(=O)c1cc2cnc(Nc3ccc(S(=O)(=O)N4CCNCC4)cc3)nc2n1C1CCCC1.O=C(O)C(F)(F)F [compound 5b, 7-Cyclopentyl-N,N-dimethyl-2-((4-(piperazin-1-ylsulfonyl)phenyl)amino)-7H-pyrrolo[2,3-d]pyrimidine-6-carboxamide trifluoroacetate] | 0.94 ± 0.25 | 98.2 | 20 | 4970 | 3.2 | 147 | Cmax (Oral PK study in rats; single oral administration, read-out: maximum plasma drug concentration (Cmax)): 1080 ng/mL; AUC (Oral PK study in rats; single oral administration, read-out: systematic exposure (AUC0‑t)): 4430 ng·h/mL; AUC(0-inf) (Oral PK study in rats; oral, n = 3): 4780 ± 2160 ng·h/mL; AUC(0-t) (Oral PK study in rats; oral, n = 3): 4430 ± 1620 ng·h/mL; MRT (Oral PK study in rats; oral, n = 3): 3.62 ± 0.83 h; Tmax (Oral PK study in rats; oral, n = 3): 1.17 h; half-life (Oral PK study in rats; oral, n = 3): 2.2 ± 0.9 h; Cmax (Oral PK study in rats; oral, n = 3, read-out: Cmax): 2000 nM; IC50 (PANC-1): 5.81 ± 1.38 µM; IC50 (CDK1): 333 nM; IC50 (AsPC-1): 1.48 ± 0.09 µM; IC50 (BxPC-3): 0.249 ± 0.099 µM
11 | CN(C)C(=O)c1cc2cnc(Nc3ccc(N4CCNCC4)cn3)nc2n1C1CCCC1 [Ribociclib, reference compound] | 16.5 ± 7 | 16.9 |  |  |  |  | 
12 | CC1CCN(S(=O)(=O)c2ccc(Nc3ncc4cc(C(=O)N(C)C)n(C5CCCC5)c4n3)cc2)CC1 [5d, 7-Cyclopentyl-N,N-dimethyl-2-((4-((4-methylpiperidin-1-yl)sulphonyl)phenyl)amino)-7H-pyrrolo[2,3-d]pyrimidine-6-carboxamide] | 2.85 ± 0.52 | 80.6 | 170 | > 10000 | 20 | 2340 | IC50 (CDK1): 906 nM
13 | CN(C)C(=O)c1cc2cnc(Nc3ccc(S(=O)(=O)N(C)C)cc3)nc2n1C1CCCC1 [2e, 7-Cyclopentyl-2-((4-(N,N-dimethylsulfamoyl)phenyl)amino)-N,N-dimethyl-7H-pyrrolo[2,3-d]pyrimidine-6-carboxamide] | 10.5 ± 0.74 | 89.3 |  |  |  |  | 
14 | CN1CCN(S(=O)(=O)c2ccc(Nc3ncc4cc(C(=O)N(C)C)n(C5CCCC5)c4n3)cc2)CC1 [5c, 7-Cyclopentyl-N,N-dimethyl-2-((4-((4-methylpiperazin-1-yl)sulphonyl)phenyl)amino)-7H-pyrrolo[2,3-d]pyrimidine-6-carboxamide] | 7.8 ± 1.04 | 99.1 | 35 | > 10000 | 6.3 | 227 | IC50 (CDK1): 550 nM
15 | COc1ccccc1NC(=O)c1cc2cnc(Nc3ccc(S(=O)(=O)Nc4nc(C)cc(C)n4)cc3)nc2n1C1CCCC1 [10a, 7-Cyclopentyl-2-((4-(N-(4,6-dimethylpyrimidin-2-yl)sulfamoyl)phenyl)amino)-N-(2-methoxyphenyl)-7H-pyrrolo[2,3-d]pyrimidine-6-carboxamide] | 40.8 ± 3.26 | -3.1 |  |  |  |  | 
